Results: patent US9868705B2, “Tetra-aryl cyclobutane inhibitors of androgen receptor action for the treatment of hormone refractory cancer” (The Board of Trustees of the University of Illinois, priority 2013, dated 2018)
Residue numbers refer to the chain shown, from its start.

Legend:
AR = biological target: T1, AR (Homo sapiens, UniProt P10275); assay: AR relative binding affinity (RBA)
T1 sequence (P10275 1-920): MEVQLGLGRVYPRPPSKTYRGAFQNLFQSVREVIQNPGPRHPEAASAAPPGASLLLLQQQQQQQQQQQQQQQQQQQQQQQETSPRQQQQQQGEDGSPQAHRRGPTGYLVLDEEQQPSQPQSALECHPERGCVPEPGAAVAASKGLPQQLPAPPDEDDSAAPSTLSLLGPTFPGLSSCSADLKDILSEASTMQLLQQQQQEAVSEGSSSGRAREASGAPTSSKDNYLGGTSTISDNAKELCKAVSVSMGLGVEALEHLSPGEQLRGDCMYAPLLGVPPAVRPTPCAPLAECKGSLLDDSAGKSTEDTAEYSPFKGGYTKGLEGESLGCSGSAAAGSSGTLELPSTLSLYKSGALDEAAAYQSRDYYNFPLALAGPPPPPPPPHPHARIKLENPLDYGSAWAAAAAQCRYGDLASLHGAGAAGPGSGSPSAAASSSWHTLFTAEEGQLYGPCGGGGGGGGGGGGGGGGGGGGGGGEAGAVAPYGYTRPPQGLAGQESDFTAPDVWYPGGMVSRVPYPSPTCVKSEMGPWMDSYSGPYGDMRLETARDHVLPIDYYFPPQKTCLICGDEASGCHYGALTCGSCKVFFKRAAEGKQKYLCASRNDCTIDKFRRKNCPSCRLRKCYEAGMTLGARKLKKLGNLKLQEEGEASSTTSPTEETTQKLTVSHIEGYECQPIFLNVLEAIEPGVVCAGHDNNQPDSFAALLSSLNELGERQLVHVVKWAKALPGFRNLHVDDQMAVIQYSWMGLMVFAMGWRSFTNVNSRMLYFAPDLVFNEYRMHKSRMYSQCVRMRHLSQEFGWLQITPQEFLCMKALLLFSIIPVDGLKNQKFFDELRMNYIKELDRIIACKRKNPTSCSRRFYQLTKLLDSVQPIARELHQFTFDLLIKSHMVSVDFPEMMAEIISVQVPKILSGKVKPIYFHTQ

wild type AR = biological target: T2, wild type AR (Homo sapiens, UniProt P10275); assay: MMTV-luciferase transcription assay in CV-1 cells, wild type AR; type: cell-based; conditions: wild type AR; for MMTV transcription assay in CV-1 cells WT (IC50 / inhibition): values given as powers of ten without unit, or in words
T2 construct: expressed in transfected cells; host or cells: CV-1
T2 sequence (P10275 1-920): T1 sequence (P10275 1-920)
Description: (§1) These compounds were screened using an AR-responsive MMTV transcription assay in CV-1 cells, utilizing both wild type and T877A (LNCaP) AR. […]

T877A (LNCaP) AR = biological target: T3, T877A (LNCaP) AR (Homo sapiens, UniProt P10275, T878A); assay: MMTV-luciferase transcription assay in CV-1 cells, T877A AR; type: cell-based; conditions: for AR antagonism, potency in words (structure-activity discussion): MMTV transcription assay in CV-1 cells, compared with 1; for MMTV transcription assay in CV-1 cells T877A (IC50 / inhibition) / IC50: T877A AR; for MMTV transcription assay in CV-1 cells T877A (IC50 / inhibition): values given as powers of ten without unit, or in words; for IC50: values given in μM, read-out: MMTV transcription assay in CV-1 cells T877A (IC50)
T3 construct: expressed in transfected cells; host or cells: CV-1
T3 sequence (P10275 1-920 T878A): T1 sequence (P10275 1-920) with T878A
Description: as §1

androgen receptor = assay: Whole-cell competition binding assay using 3H-R1881; conditions: whole cells; mutant AR and WT-AR

| MMTV transcription assay in CV-1 cells WT (IC50 / inhibition) (wild type AR) | AR antagonism, potency in words (structure-activity discussion) (T877A (LNCaP) AR) | MMTV transcription assay in CV-1 cells T877A (IC50 / inhibition) (T877A (LNCaP) AR) | SMILES | also measured |
| --- | --- | --- | --- | --- |
| No inhibition | decreased activity | – | COc1cncc([C@H]2[C@H](c3ccccc3)[C@H](c3cncc(OC)n3)[C@H]2c2ccccc2)n1 [DPM-18] | – |
| – | decreased activity | – | COc1cncc([C@H]2[C@H](c3ccccc3)[C@@H](c3cncc(OC)n3)[C@H]2c2ccccc2)n1 [DPM-17] | – |
| No inhibition No inhibition | – | No inhibition No inhibition | COc1nccc([C@H]2[C@H](c3ccccc3)[C@H](c3ccnc(OC)n3)[C@H]2c2ccccc2)n1 [DPM-5] | – |
| No inhibition | decreased activity | Slight inhibition at 10^−5 | COc1cncc([C@@H]2[C@@H](c3ccccc3)[C@@H](c3ccccc3)[C@@H]2c2cncc(OC)n2)n1 [DPM-16] | – |
| No inhibition No inhibition | – | No inhibition | c1ccc([C@@H]2[C@H](c3ccccc3)[C@@H](c3ccccn3)[C@H]2c2ccccn2)cc1 [DPM-14] | – |
| – | comparable potency to 1 | – | Cc1cc([C@H]2[C@H](c3ccccc3)[C@H](c3cc(C)nc(Cl)n3)[C@H]2c2ccccc2)nc(Cl)n1 [DPM-30] | IC50 (wild type AR; values given in μM, read-out: MMTV transcription assay in CV-1 cells WT (IC50)): 17 µM; IC50 (T877A (LNCaP) AR): 2.89 µM |
| No inhibition | inactive | No inhibition | Clc1cc([C@H]2[C@H](c3ccc(-c4ccccc4)cc3)[C@H](c3cc(Cl)nc(Cl)n3)[C@H]2c2ccc(-c3ccccc3)cc2)nc(Cl)n1 [DPM-27] | – |
| Incomplete inhibition at 10^−5 | decreased potency | – | Clc1cc([C@H]2[C@H](c3ccccc3)[C@H](c3cc(Cl)ncn3)[C@H]2c2ccccc2)ncn1 [DPM-26] | IC50 (T877A (LNCaP) AR): 9 µM |
| No inhibition | decreased activity | – | COc1cncc([C@@H]2[C@@H](c3ccccc3)[C@@H](c3ccccc3)[C@@H]2c2cncc(OC)n2)n1 [DPM-15] | – |
| No inhibition No inhibition | – | No inhibition | c1ccc([C@@H]2[C@H](c3ccccc3)[C@@H](c3cnccn3)[C@H]2c2cnccn2)cc1 [DPM-12] | – |

Second part, the compound before the results:

| SMILES | MMTV transcription assay in CV-1 cells WT (IC50 / inhibition) (wild type AR) | AR antagonism, potency in words (structure-activity discussion) (T877A (LNCaP) AR) | MMTV transcription assay in CV-1 cells T877A (IC50 / inhibition) (T877A (LNCaP) AR) | also measured |
| --- | --- | --- | --- | --- |
| COc1cc([C@H]2[C@@H](c3ccccc3)[C@@H](c3cc(=O)[nH]c(=O)[nH]3)[C@@H]2c2ccccc2)nc(OC)n1 [CB-46] | – | – | – | AR RBA (AR): 0.065% |
| O=c1cc([C@H]2[C@H](c3ccccc3)[C@@H](c3cc(=O)[nH]c(=O)[nH]3)[C@H]2c2ccccc2)[nH]c(=O)[nH]1 [CB-48] | – | – | – | AR RBA (AR): 0.023% |
| CCCNc1cc([C@H]2[C@H](c3ccccc3)[C@@H](c3cc(NCCC)nc(NCCC)n3)[C@H]2c2ccccc2)nc(NCCC)n1 [CB-1] | – | – | – | competition with 3H-R1881 for binding to AR (androgen receptor): compete with 3H-R1881 |
| COc1cc([C@H]2[C@@H](c3ccccc3)[C@H](c3cc(=O)[nH]c(=O)[nH]3)[C@@H]2c2ccccc2)nc(OC)n1 [CB-45] | – | – | – | AR RBA (AR): 0.087% |
| COc1cc([C@H]2[C@H](c3ccc(Br)cc3)[C@@H](c3cc(OC)nc(OC)n3)[C@H]2c2ccc(Br)cc2)nc(OC)n1 [DMP-10] | No inhibition | inactive | No inhibition | – |
| CSc1cc([C@H]2[C@H](c3ccccc3)[C@H](c3cc(SC)nc(SC)n3)[C@H]2c2ccccc2)nc(SC)n1 [CB-34] | – | – | – | AR RBA (AR): 0.002% |
| COc1cc([C@H]2[C@H](c3ccsc3)[C@H](c3cc(OC)nc(OC)n3)[C@H]2c2ccsc2)nc(OC)n1 [DPM-8] | Incomplete inhibition at 10^−5 Incomplete inhibition at 10^−5 | retained parent compound potency | – | – |
| CSc1cc([C@H]2[C@H](c3ccccc3)[C@@H](c3cc(SC)nc(SC)n3)[C@H]2c2ccccc2)nc(SC)n1 [CB-35] | – | – | – | AR RBA (AR): 0.027% |
| Clc1cc([C@@H]2[C@H](c3cc(Cl)nc(Cl)n3)[C@@H](c3cccs3)[C@H]2c2cccs2)nc(Cl)n1 [DMP-29] | Incomplete inhibition at 10^−5 Incomplete inhibition at 10^−5 | retained parent compound potency | Incomplete inhibition at 10^−5 | – |
| COc1cc([C@H]2[C@H](c3ccccc3)[C@@H](c3cc(OC)nc(OC)n3)[C@H]2c2ccccc2)nc(OC)n1 [CB-31] | – | – | – | AR RBA (AR): 0.046% |
| c1ccc([C@H]2[C@H](c3ccccn3)[C@H](c3ccccc3)[C@H]2c2ccccn2)cc1 [DMP-13] | No inhibition No inhibition | – | – | – |
| CC(C)CNc1cc([C@H]2[C@@H](c3ccccc3)[C@H](c3cc(NCC(C)C)nc(NCC(C)C)n3)[C@@H]2c2ccccc2)nc(NCc2cccc3ccccc23)n1 [CB-6] | – | – | – | competition with 3H-R1881 for binding to AR (androgen receptor): compete with 3H-R1881 |
| CCc1cc([C@H]2[C@H](c3ccccc3)[C@H](c3cc(CC)nc(CC)n3)[C@H]2c2ccccc2)nc(CC)n1 [CB-50] | – | – | – | AR RBA (AR): 0.029% |
| COc1nccc([C@H]2[C@H](c3ccccc3)[C@@H](c3ccnc(OC)n3)[C@H]2c2ccccc2)n1 [DMP-6] | No inhibition No inhibition | – | No inhibition No inhibition | – |
| c1ccc([C@H]2[C@H](c3cnccn3)[C@H](c3ccccc3)[C@@H]2c2cnccn2)cc1 [DPM-11/20] | No inhibition No inhibition | – | Mild inhibition at~10^−5 | – |
| Clc1cc([C@H]2[C@H](c3cccs3)[C@H](c3cc(Cl)nc(Cl)n3)[C@H]2c2cccs2)nc(Cl)n1 [DMP-28] | Incomplete inhibition at 10^−5 Incomplete inhibition at 10^−5 | retained parent compound potency | – | IC50 (T877A (LNCaP) AR): 2.6 µM |
